Publication PMC7919492, “Synthesis of Rottlerone Analogues and Evaluation of Their α-Glucosidase and DPP-4 Dual Inhibitory and Glucose Consumption-Promoting Activity” (Molecules, 2021)
Entries after “also recorded” stand apart in the source; their conditions may differ. Where two headings read alike, the source gives them in different places.

Key:
DPP-4 = target: T1, DPP-4 (Homo sapiens, UniProt P27487); test: DPP-4 inhibition assay (glycyl proline p-nitroaniline substrate); type: biochemical; conditions: average of three independent experiments, each in duplicate; 37 °C, 30 min
T1 construct: purchased PROSPEC ENZ-375
Method: The enzyme and substrate were dissolved in Tris-HCl buffer (0.1 M, pH 8.0). The enzymatic reaction mixture that was composed of DPP-4 (0.01 U, 50 μL), substrate (2.2 mM, 50 μL), test compounds (10 μL), and Tris-HCl buffer (90 μL) was incubated at 37 °C for 30 min. […] The results are the average of three independent experiments, each being performed in duplicate.

[1] = target: T2, α-glucosidase from baker’s yeast (Saccharomyces cerevisiae, UniProt P53341); test: biochemical; type: biochemical; conditions: for fold higher α-glucosidase inhibitory activity than 3: compared with compound 3; for fold higher α-glucosidase inhibitory activity than 5a: compared with compound 5a
T2 construct: purchased Sigma G5003
Method: The commercially available α-glucosidase from baker’s yeast (Sigma, G5003) was selected as the target protein while using p-nitrophenyl-α-D-glucopyranoside (pNGP, Sigma, N1377) as the substrate. […] The enzyme and substrate were dissolved in potassium phosphate buffer (0.05 M, pH 6.8). The enzymatic reaction mixture that was composed of α-glucosidase (0.04 U, 20 μL), substrate (0.5 mM, 30 μL), test compounds (20 μL), and potassium phosphate buffer (130 μL) was incubated at 37 °C for 30 min. The enzymatic activity was detected by spectrophotometer at the wavelength of 405 nm. The results are the average of three independent experiments, each being performed in duplicate.

α-glucosidase = target: T3, α-glucosidase (Saccharomyces cerevisiae, UniProt P53341); test: Kinetics of enzyme inhibition (velocity vs enzyme plots, Lineweaver-Burk); type: biochemical, baker’s yeast; conditions: for reversibility of α-glucosidase inhibition: plots of velocity versus enzyme concentration at different inhibitor concentrations
T3 construct: purchased Sigma G5003
Method: The commercially available α-glucosidase from baker’s yeast (Sigma, G5003) was selected as the target protein while using p-nitrophenyl-α-D-glucopyranoside (pNGP, Sigma, N1377) as the substrate. The compounds and acarbose were dissolved in DMSO. The enzyme and substrate were dissolved in potassium phosphate buffer (0.05 M, pH 6.8). The enzymatic reaction mixture that was composed of α-glucosidase (0.04 U, 20 μL), substrate (0.5 mM, 30 μL), test compounds (20 μL), and potassium phosphate buffer (130 μL) was incubated at 37 °C for 30 min. The enzymatic activity was detected by spectrophotometer at the wavelength of 405 nm. The results are the average of three independent experiments, each being performed in duplicate.
The kinetics of enzyme inhibition was performed with the same assays detailed above, in the presence of different concentrations of compounds 4d and 5d, substrate, and enzyme, respectively. The inhibitory kinetics of 4d and 5d on α-glucosidase was analyzed using the Lineweaver-Burk plot of the substrate concentration and velocity.

HepG2 cells = test: Glucose consumption assay in HepG2 cells; type: cell-based, human; conditions: 24 h
Method: Briefly, the HepG2 cells were cultured in Dulbecco’s-modified Eagle’s medium (DMEM) containing 25 mmol/L D-glucose, 10% heat-inactivated fetal bovine serum (FBS), 10 U/mL penicillin, and […] streptomycin at 37 °C, 5% CO2 atmosphere. The culture solution was replaced every other day and then passaged once for 2–3 d. The cells were seeded into 96-well plate with twenty-four wells left as blanks. After reaching 70–80% confluence, the cells were washed with PBS twice and the medium was replaced by DMEM containing 25 mmol/L D-glucose to hunger for 24 h. The cells were washed with PBS twice and the medium was replaced by RPMI-1640 containing 11.1 mmol/L glucose that was supplemented with 0.2% bovine serum albumin (BSA). To the medium was then added 1 mmol/L metformin or purified product at different concentrations, and DMSO was used as the blank control. The glucose concentration in the medium […] 24 h treatment. Glucose consumption = glucose concentrations of blank wells − glucose concentrations of plated wells. The sulforhodamine B (SRB) assay was used to adjust the glucose consumption values. The SRB assay is based on the measurement of cellular protein content. […] Bound SRB was solubilized with 150 μL Tris-base (10 mmol/L, pH 10.5) solution for OD determination at 546 nm while using a microplate reader.

[2] = average of three independent experiments, each in duplicate, 37 °C, 30 min, read-out: IC50 α-Glucosidase

T1 sequence (P27487 whole entry): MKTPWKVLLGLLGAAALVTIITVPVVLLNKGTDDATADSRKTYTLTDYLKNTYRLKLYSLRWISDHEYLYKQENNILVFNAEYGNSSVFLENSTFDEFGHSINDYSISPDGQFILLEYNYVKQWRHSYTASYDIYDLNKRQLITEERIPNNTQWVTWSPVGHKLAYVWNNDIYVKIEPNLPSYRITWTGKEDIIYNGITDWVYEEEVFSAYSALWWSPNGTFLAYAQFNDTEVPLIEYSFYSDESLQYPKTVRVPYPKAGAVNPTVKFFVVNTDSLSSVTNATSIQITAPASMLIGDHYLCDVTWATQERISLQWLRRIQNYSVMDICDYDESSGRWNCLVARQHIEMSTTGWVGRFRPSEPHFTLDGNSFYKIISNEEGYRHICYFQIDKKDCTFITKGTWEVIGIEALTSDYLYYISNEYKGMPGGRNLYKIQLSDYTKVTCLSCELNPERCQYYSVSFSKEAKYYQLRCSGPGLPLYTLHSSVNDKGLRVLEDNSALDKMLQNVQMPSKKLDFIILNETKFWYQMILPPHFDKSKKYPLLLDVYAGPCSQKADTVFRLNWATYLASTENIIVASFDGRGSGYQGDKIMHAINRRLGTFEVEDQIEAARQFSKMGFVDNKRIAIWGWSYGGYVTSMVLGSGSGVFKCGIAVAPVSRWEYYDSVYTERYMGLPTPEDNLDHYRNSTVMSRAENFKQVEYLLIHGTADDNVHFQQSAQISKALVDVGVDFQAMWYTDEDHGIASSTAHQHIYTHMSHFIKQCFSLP
T2 sequence (P53341 whole entry): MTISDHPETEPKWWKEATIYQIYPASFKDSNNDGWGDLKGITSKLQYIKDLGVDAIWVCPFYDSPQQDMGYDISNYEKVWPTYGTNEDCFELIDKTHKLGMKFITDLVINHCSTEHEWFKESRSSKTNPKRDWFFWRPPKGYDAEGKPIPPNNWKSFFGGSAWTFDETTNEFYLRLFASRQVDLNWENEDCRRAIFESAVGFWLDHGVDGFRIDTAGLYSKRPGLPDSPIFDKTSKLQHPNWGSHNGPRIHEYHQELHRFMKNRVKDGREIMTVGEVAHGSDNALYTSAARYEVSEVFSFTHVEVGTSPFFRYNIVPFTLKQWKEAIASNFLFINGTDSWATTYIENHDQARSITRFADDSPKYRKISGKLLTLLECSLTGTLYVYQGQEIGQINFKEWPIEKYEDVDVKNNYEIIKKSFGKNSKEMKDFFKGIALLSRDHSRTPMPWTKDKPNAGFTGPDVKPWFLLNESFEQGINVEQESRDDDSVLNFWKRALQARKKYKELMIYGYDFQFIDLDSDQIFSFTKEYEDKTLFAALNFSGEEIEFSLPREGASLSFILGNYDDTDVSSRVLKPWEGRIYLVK
T3 sequence (P53341 whole entry): as above

Row | IC50 [1, 2] [µM] | Molecule | IC50 (DPP-4) [µM] | IC50 [1] [µM] | further results
1 | 5.91 ± 0.19 | CC1(C)C=Cc2c(O)c(Cc3c(O)c4c(c(C(=O)C=Cc5ccccc5)c3O)OC(C)(C)C=C4)c(O)c(C(=O)C=Cc3ccccc3)c2O1 (stereo in doubt) [Compound 3, (2Z,2’Z)-1,1’-(Methylenebis(5,7-dihydroxy-2,2-dimethyl-2H-chromene-6,8-diyl))bis (3-phenylprop-2-en-1-one)] | > 50 |  | 
2 |  | COc1ccc(C=CC(=O)c2c(O)c(Cc3c(O)c4c(c(C(=O)C=Cc5ccc(OC)cc5)c3O)OC(C)(C)C=C4)c(O)c3c2OC(C)(C)C=C3)cc1 (stereo in doubt) [Compound 4a, (2Z,2’Z)-1,1’-(Methylenebis(5,7-dihydroxy-2,2-dimethyl-2H-chromene-6,8-diyl))bis (3-(4-methoxyphenyl)prop-2-en-1-one)] | > 50 | 6.41 ± 0.33 | 
3 |  | CC1(C)C=Cc2c(O)c(Cc3c(O)c4c(c(C(=O)C=Cc5ccc(F)cc5)c3O)OC(C)(C)C=C4)c(O)c(C(=O)C=Cc3ccc(F)cc3)c2O1 (stereo in doubt) [Compound 4b, (2Z,2’Z)-1,1’-(Methylenebis(5,7-dihydroxy-2,2-dimethyl-2H-chromene-6,8-diyl))bis (3-(4-fluoro phenyl)prop-2-en-1-one)] | > 50 | 8.71 ± 0.54 | 
4 |  | CC1(C)C=Cc2c(O)c(Cc3c(O)c4c(c(C(=O)C=Cc5ccc(O)cc5)c3O)OC(C)(C)C=C4)c(O)c(C(=O)C=Cc3ccc(O)cc3)c2O1 (stereo in doubt) [Compound 5a, (2Z,2’Z)-1,1’-(Methylenebis(5,7-dihydroxy-2,2-dimethyl-2H-chromene-6,8-diyl))bis (3-(4-hydroxyphenyl)prop-2-en-1-one)] | > 50 | 0.51 ± 0.19 | fold higher α-glucosidase inhibitory activity than 3 [1]: 10 fold
5 |  | CC1(C)C=Cc2c(O)c(Cc3c(O)c4c(c(C(=O)C=Cc5ccc(O)cc5O)c3O)OC(C)(C)C=C4)c(O)c(C(=O)C=Cc3ccc(O)cc3O)c2O1 (stereo in doubt) [Compound 5b, (2Z,2’Z)-1,1’-(Methylenebis(5,7-dihydroxy-2,2-dimethyl-2H-chromene-6,8-diyl))bis (3-(2,4-dihydroxyphenyl)prop-2-en-1-one)] | > 50 | 0.24 ± 0.02 | fold higher α-glucosidase inhibitory activity than 5a [1]: two-fold
6 |  | CC1(C)C=Cc2c(O)c(Cc3c(O)c4c(c(C(=O)C=Cc5cccc(O)c5O)c3O)OC(C)(C)C=C4)c(O)c(C(=O)C=Cc3cccc(O)c3O)c2O1 (stereo in doubt) [Compound 5c, (2Z,2’Z)-1,1’-(Methylenebis(5,7-dihydroxy-2,2-dimethyl-2H-chromene-6,8-diyl))bis (3-(2,3-dihydroxyphenyl)prop-2-en-1-one)] | > 50 | 1.07 ± 0.06 | 
7 |  | CC1(C)C=Cc2c(O)c(Cc3c(O)c4c(c(C(=O)C=Cc5ccc(O)c(O)c5O)c3O)OC(C)(C)C=C4)c(O)c(C(=O)C=Cc3ccc(O)c(O)c3O)c2O1 (stereo in doubt) [Compound 5d, (2Z,2’Z)-1,1’-(Methylenebis(5,7-dihydroxy-2,2-dimethyl-2H-chromene-6,8-diyl))bis (3-(2,3,4-trihydroxyphenyl)prop-2-en-1-one)] | 26.19 ± 0.22 | 0.12 ± 0.02 | type of α-glucosidase inhibition (α-glucosidase; Lineweaver-Burk plot, 0, 0.2, 0.5 μM): mixed competitive α-glucosidase inhibitor; also recorded: mixed competitive inhibitory mode; reversibility of α-glucosidase inhibition (α-glucosidase): irreversibly; also recorded: irreversible α-glucosidase inhibitors; glucose consumption (HepG2 cells; 0.04 μM): significantly promote glucose consumption; glucose consumption (HepG2 cells; 0.2 μM, metformin 1 mM positive control): significantly promote glucose consumption; also recorded: comparable to that of metformin; fold higher α-glucosidase inhibitory activity than 5a [1]: four-fold
8 | 22.4 ± 3.1 | CC(C)=CCc1c(O)cc(O)c(C(=O)/C=C/c2ccc(O)cc2)c1O [Compound 1, Desmethylxanthohumol, reference compound] | > 50 |  | 
9 | 9.74 ± 0.73 | CC1(C)C=Cc2c(O)cc(O)c(C(=O)/C=C/c3ccc(O)cc3)c2O1 [Compound 2, dehydrocyclodesmethylxanthohumol, reference compound] | > 50 |  | 
10 | 7.11 ± 0.05 | CC(=O)c1c(O)c(Cc2c(O)c3c(c(C(C)=O)c2O)OC(C)(C)C=C3)c(O)c2c1OC(C)(C)C=C2 [Compound 9, 1,1’-(Methylenebis(5,7-dihydroxy-2,2-dimethyl-2H-chromene-6,8-diyl))bis (ethan-1-one)] | > 50 |  | 
11 |  | COc1c2c(c(C(=O)/C=C\c3ccccc3)c(O)c1Cc1c(O)c(C(=O)/C=C\c3ccccc3)c3c(c1OC)C=CC(C)(C)O3)OC(C)(C)C=C2 [Compound 12, (2Z,2’Z)-1,1’-(Methylenebis(7-hydroxy-5-methoxy-2,2-dimethyl-2H-chromene-6,8-diyl))bis(3-phenylprop-2-en-1-one)] | > 50 | 3.39 ± 0.13 | 
12 |  | COc1c2c(c(C(=O)/C=C\c3ccccc3)c(O)c1Cc1c(OC)c3c(c(C(=O)/C=C\c4ccccc4)c1OC)OC(C)(C)C=C3)OC(C)(C)C=C2 [Compound 13, (Z)-1-(6-((5,7-Dimethoxy-2,2-dimethyl-8-((Z)-3-phenylacryloyl)-2H-chromen-6-yl)methyl)-7-hydroxy-5-methoxy-2,2-dimethyl-2H-chromen-8-yl)-3-phenylprop-2-en-1-one] | > 50 | 0.37 ± 0.04 | fold enhancement of α-glucosidase inhibitory activity compared to 12 ([1]; compared with compound 12): 10 fold

Row | Molecule | IC50 [1, 2] [µM] | IC50 (DPP-4) [µM] | IC50 [1] [µM] | further results
13 | CC1(C)C=Cc2c(O)c(Cc3c(O)c4c(c(C(=O)C=Cc5ccsc5)c3O)OC(C)(C)C=C4)c(O)c(C(=O)C=Cc3ccsc3)c2O1 (stereo in doubt) [Compound 4d, (2Z,2’Z)-1,1’-(Methylenebis(5,7-dihydroxy-2,2-dimethyl-2H-chromene-6,8-diyl))bis (3-(thiophen-3-yl)prop-2-en-1-one)] | 0.22 ± 0.07 | 23.59 ± 0.14 |  | reversibility of α-glucosidase inhibition (α-glucosidase): irreversibly; also recorded: irreversible α-glucosidase inhibitors; fold higher α-glucosidase inhibitory activity than 3 [1]: 26 fold
14 | (2Z,2’Z)-1,1’-(Methylenebis(5,7-dihydroxy-2,2-dimethyl-2H-chromene-6,8-diyl))bis (3-(furan-3-yl)prop-2-en-1-one) [Compound 4c] | 1.84 ± 0.41 | 21.48 ± 0.09 |  | fold higher α-glucosidase inhibitory activity than 3 [1]: three-fold
